Data as given in patent US9169254B2, “Spiroimidazolone derivative” (Chugai Seiyaku Kabushiki Kaisha, priority 2009, dated 2015).

Target: T1, human PTH1 receptor (Homo sapiens, UniProt Q03431)
T1 sequence (Q03431 27-593): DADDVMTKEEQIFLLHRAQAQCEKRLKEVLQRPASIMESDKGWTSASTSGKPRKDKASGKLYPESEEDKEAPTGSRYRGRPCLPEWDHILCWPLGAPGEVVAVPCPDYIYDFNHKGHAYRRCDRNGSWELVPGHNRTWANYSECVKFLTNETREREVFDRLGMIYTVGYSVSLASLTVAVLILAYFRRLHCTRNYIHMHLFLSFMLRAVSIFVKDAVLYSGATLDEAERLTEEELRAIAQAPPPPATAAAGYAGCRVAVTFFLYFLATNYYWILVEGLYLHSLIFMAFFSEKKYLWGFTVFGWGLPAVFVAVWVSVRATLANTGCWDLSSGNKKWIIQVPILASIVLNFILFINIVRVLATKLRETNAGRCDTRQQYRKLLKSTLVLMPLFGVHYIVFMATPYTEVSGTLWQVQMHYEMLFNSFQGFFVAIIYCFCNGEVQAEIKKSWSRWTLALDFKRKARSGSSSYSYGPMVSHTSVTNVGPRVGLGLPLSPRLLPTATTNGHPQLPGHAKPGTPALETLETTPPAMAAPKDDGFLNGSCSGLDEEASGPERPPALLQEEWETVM
Assay: In vitro cAMP signal activity in HKRK-B7 cells (LLC-PK1 cells overexpressing the human PTH1 receptor)
Assay type: cell-based
Conditions: HKRK-B7 cells; compound at 1×10^−3 M; cAMP produced as percentage of that produced by hPTH(1-34) at 100 nM

Row | cAMP production activity (%) | SMILES
1 | 76 | COCCN(C(C)=O)c1cc(C)c(/C=C/S(=O)(=O)N2CCC3(CC2)N=C(C2CCC(CCC(F)(F)F)CC2)NC3=O)c(C)c1 (stereo not shown) [Compound 543, N-[3,5-dimethyl-4-((E)-2-{4-oxo-2-[4-(3,3,3-trifluoro-propyl)-cyclohexyl]-1,3,8-triaza-spiro[4.5]dec-1-ene-8-sulfonyl}-vinyl)-phenyl]-N-(2-methoxy-ethyl)-acetamide]
2 | 75 | CC(=O)N(C)c1cc(C)c(/C=C/S(=O)(=O)N2CCC3(CC2)N=C(C2CCC(CCC(F)(F)F)CC2)NC3=O)c(C)c1 (stereo not shown) [Compound 546, N-[3,5-dimethyl-4-((E)-2-{4-oxo-2-[4-(3,3,3-trifluoro-propyl)-cyclohexyl]-1,3,8-triaza-spiro[4.5]dec-1-ene-8-sulfonyl}-vinyl)-phenyl]-N-methyl-acetamide]
3 | 52 | Cc1cc(C(=O)O)cc(C)c1/C=C/S(=O)(=O)N1CCC2(CC1)N=C(C1CCC(CCC(F)(F)F)CC1)NC2=O (stereo not shown) [Compound 547, 3,5-dimethyl-4-((E)-2-{4-oxo-2-[4-(3,3,3-trifluoro-propyl)-cyclohexyl]-1,3,8-triaza-spiro[4.5]dec-1-ene-8-sulfonyl}-vinyl)-benzoic acid]
4 | 88 | Cc1cc(N2C(=O)CN(C)C2=O)cc(C)c1/C=C/S(=O)(=O)N1CCC2(CC1)N=C(C1CCC(CCC(F)(F)F)CC1)NC2=O (stereo not shown) [Compound 548, 3-[3,5-dimethyl-4-((E)-2-{4-oxo-2-[4-(3,3,3-trifluoro-propyl)-cyclohexyl]-1,3,8-triaza-spiro[4.5]dec-1-ene-8-sulfonyl}-vinyl)-phenyl]-1-methyl-imidazolidine-2,4-dione]
5 | 86 | Cc1cc(C(=O)N2CCN(CCF)CC2)cc(C)c1/C=C/S(=O)(=O)N1CCC2(CC1)N=C(C1CCC(CCC(F)(F)F)CC1)NC2=O (stereo not shown) [Compound 549, 8-((E)-2-{4-[4-(2-fluoro-ethyl)-piperazine-1-carbonyl]-2,6-dimethyl-phenyl}-ethenesulfonyl)-2-[4-(3,3,3-trifluoro-propyl)-cyclohexyl]-1,3,8-triaza-spiro[4.5]dec-1-en-4-one]
6 | 124 | Cc1cc(N2CCOCC2=O)cc(C)c1/C=C/S(=O)(=O)N1CCC2(CC1)N=C(C1CCC(CCC(F)(F)F)CC1)NC2=O (stereo not shown) [Compound 550, 8-{(E)-2-[2,6-dimethyl-4-(3-oxo-morpholin-4-yl)-phenyl]-ethenesulfonyl}-2-[4-(3,3,3-trifluoro-propyl)-cyclohexyl]-1,3,8-triaza-spiro[4.5]dec-1-en-4-one]
7 | 92 | CC(=O)N(CCOCCF)c1cc(C)c(/C=C/S(=O)(=O)N2CCC3(CC2)N=C(C2CCC(CCC(F)(F)F)CC2)NC3=O)c(C)c1 (stereo not shown) [Compound 551, N-[3,5-dimethyl-4-((E)-2-{4-oxo-2-[4-(3,3,3-trifluoro-propyl)-cyclohexyl]-1,3,8-triaza-spiro[4.5]dec-1-ene-8-sulfonyl}-vinyl)-phenyl]-N-[2-(2-fluoro-ethoxy)-ethyl]-acetamide]
8 | 64 | CC(=O)NNC(=O)c1cc(C)c(/C=C/S(=O)(=O)N2CCC3(CC2)N=C(C2CCC(CCC(F)(F)F)CC2)NC3=O)c(C)c1 (stereo not shown) [Compound 552, 3,5-dimethyl-4-((E)-2-{4-oxo-2-[4-(3,3,3-trifluoro-propyl)-cyclohexyl]-1,3,8-triaza-spiro[4.5]dec-1-ene-8-sulfonyl}-vinyl)-benzoic acid N′-acetyl-hydrazide]
9 | 80 | Cc1cc(CO)cc(C)c1/C=C/S(=O)(=O)N1CCC2(CC1)N=C(C1CCC(CCC(F)(F)F)CC1)NC2=O (stereo not shown) [Compound 553, 8-[(E)-2-(4-hydroxymethyl-2,6-dimethyl-phenyl)-ethenesulfonyl]-2-[4-(3,3,3-trifluoro-propyl)-cyclohexyl]-1,3,8-triaza-spiro[4.5]dec-1-en-4-one]
10 | 19 | Cc1cc(CN2CCCC2=O)cc(C)c1/C=C/S(=O)(=O)N1CCC2(CC1)N=C(C1CCC(CCC(F)(F)F)CC1)NC2=O (stereo not shown) [Compound 556, 8-{(E)-2-[2,6-dimethyl-4-(2-oxo-pyrrolidin-1-ylmethyl)-phenyl]-ethenesulfonyl}-2-[4-(3,3,3-trifluoro-propyl)-cyclohexyl]-1,3,8-triaza-spiro[4.5]dec-1-en-4-one]
11 | 50 | Cc1cc(CN2C(=O)CCC2=O)cc(C)c1/C=C/S(=O)(=O)N1CCC2(CC1)N=C(C1CCC(CCC(F)(F)F)CC1)NC2=O (stereo not shown) [Compound 557, 1-[3,5-dimethyl-4-((E)-2-{4-oxo-2-[4-(3,3,3-trifluoro-propyl)-cyclohexyl]-1,3,8-triaza-spiro[4.5]dec-1-ene-8-sulfonyl}-vinyl)-benzyl]-pyrrolidine-2,5-dione]
12 | 74 | CC(=O)NCc1cc(C)c(/C=C/S(=O)(=O)N2CCC3(CC2)N=C(C2CCC(CCC(F)(F)F)CC2)NC3=O)c(C)c1 (stereo not shown) [Compound 558, N-[3,5-dimethyl-4-((E)-2-{4-oxo-2-[4-(3,3,3-trifluoro-propyl)-cyclohexyl]-1,3,8-triaza-spiro[4.5]dec-1-ene-8-sulfonyl}-vinyl)-benzyl]-acetamide]
13 | 72 | CC(=O)N(C)Cc1cc(C)c(/C=C/S(=O)(=O)N2CCC3(CC2)N=C(C2CCC(CCC(F)(F)F)CC2)NC3=O)c(C)c1 (stereo not shown) [Compound 559, N-[3,5-dimethyl-4-((E)-2-{4-oxo-2-[4-(3,3,3-trifluoro-propyl)-cyclohexyl]-1,3,8-triaza-spiro[4.5]dec-1-ene-8-sulfonyl}-vinyl)-benzyl]-N-methyl-acetamide]

Continued, compound first:

Row | SMILES | cAMP production activity (%)
14 | CCCCCCCCCC1=NC2(CCN(S(=O)(=O)/C=C/c3c(C)cc(N4C(=O)CNC4=O)cc3C)CC2)C(=O)N1 [Compound 539, 3-{3,5-dimethyl-4-[(E)-2-(2-nonyl-4-oxo-1,3,8-triaza-spiro[4.5]dec-1-ene-8-sulfonyl)-vinyl]-phenyl}-imidazolidine-2,4-dione] | 80
15 | Cc1cc(N2C(=O)NC(C)(C)C2=O)ccc1/C=C/S(=O)(=O)N1CCC2(CC1)N=C(C1CCC(CCC(F)(F)F)CC1)NC2=O (stereo not shown) [Compound 540, 5,5-Dimethyl-3-[3-methyl-4-((E)-2-{4-oxo-2-[4-(3,3,3-trifluoro-propyl)-cyclohexyl]-1,3,8-triaza-spiro[4.5]dec-1-ene-8-sulfonyl}-vinyl)-phenyl]-imidazolidine-2,4-dione] | 22
16 | O=C1NC(C2CCC(CCC(F)(F)F)CC2)=NC12CCN(S(=O)(=O)/C=C/c1cccc3c1ccn3C[C@@H](O)CO)CC2 (stereo partly drawn) [Compound 541, 8-{(E)-2-[1-((R)-2,3-dihydroxy-propyl)-1H-indol-4-yl]-ethenesulfonyl}-2-[4-(3,3,3-trifluoro-propyl)-cyclohexyl]-1,3,8-triaza-spiro[4.5]dec-1-en-4-one] | 79
17 | COCCN(C(C)=O)c1ccc(/C=C/S(=O)(=O)N2CCC3(CC2)N=C(C2CCC(CCC(F)(F)F)CC2)NC3=O)c(C)c1 (stereo not shown) [Compound 542, N-(2-methoxy-ethyl)-N-[3-methyl-4-((E)-2-{4-oxo-2-[4-(3,3,3-trifluoro-propyl)-cyclohexyl]-1,3,8-triaza-spiro[4.5]dec-1-ene-8-sulfonyl}-vinyl)-phenyl]-acetamide] | 66
18 | CC(=O)N(CCOCCO)c1ccc(/C=C/S(=O)(=O)N2CCC3(CC2)N=C(C2CCC(CCC(F)(F)F)CC2)NC3=O)c(C)c1 (stereo not shown) [Compound 544, N-[2-(2-hydroxy-ethoxy)-ethyl]-N-[3-methyl-4-((E)-2-{4-oxo-2-[4-(3,3,3-trifluoro-propyl)-cyclohexyl]-1,3,8-triaza-spiro[4.5]dec-1-ene-8-sulfonyl}-vinyl)-phenyl]-acetamide] | 80
19 | CC(=O)N(CCOCCF)c1ccc(/C=C/S(=O)(=O)N2CCC3(CC2)N=C(C2CCC(CCC(F)(F)F)CC2)NC3=O)c(C)c1 (stereo not shown) [Compound 545, N-[2-(2-fluoro-ethoxy)-ethyl]-N-[3-methyl-4-((E)-2-{4-oxo-2-[4-(3,3,3-trifluoro-propyl)-cyclohexyl]-1,3,8-triaza-spiro[4.5]dec-1-ene-8-sulfonyl}-vinyl)-phenyl]-acetamide] | 86
20 | Cc1cc(CN2C(=O)CNC2=O)cc(C)c1/C=C/S(=O)(=O)N1CCC2(CC1)N=C(C1CCC(CCC(F)(F)F)CC1)NC2=O (stereo not shown) [Compound 554, 3-[3,5-dimethyl-4-((E)-2-{4-oxo-2-[4-(3,3,3-trifluoro-propyl)-cyclohexyl]-1,3,8-triaza-spiro[4.5]dec-1-ene-8-sulfonyl}-vinyl)-benzyl]-imidazolidine-2,4-dione] | 82
21 | Cc1cc(CN2C(=O)NC(C)(C)C2=O)cc(C)c1/C=C/S(=O)(=O)N1CCC2(CC1)N=C(C1CCC(CCC(F)(F)F)CC1)NC2=O (stereo not shown) [Compound 555, 3-[3,5-dimethyl-4-((E)-2-{4-oxo-2-[4-(3,3,3-trifluoro-propyl)-cyclohexyl]-1,3,8-triaza-spiro[4.5]dec-1-ene-8-sulfonyl}-vinyl)-benzyl]-5,5-dimethyl-imidazolidine-2,4-dione] | 40
22 | CCCCC1CCC(C2=NC3(CCN(S(=O)(=O)/C=C/c4ccc(N5C(=O)CNC5=O)cc4C)CC3)C(=O)N2)CC1 (stereo not shown) [Compound 560, 3-(4-{(E)-2-[2-(4-Butyl-cyclohexyl)-4-oxo-1,3,8-triaza-spiro[4.5]dec-1-ene-8-sulfonyl]-vinyl}-3-methyl-phenyl)-imidazolidine-2,4-dione] | 66
